# Assays:
# [1] = Retrospective analysis of tumor development in transgenic mouse colony; format: in vivo, mice
# Description: A retrospective analysis was performed to examine the total numbers of mice (identified by the animal colony health staff) that developed tumors in the colony of transgenic mice. The records of all mice diagnosed with tumors over a 6 month period were examined, in a group of mice over-expressing wild-type human htt and their wild-type littermates. […] The average age of tumor development was younger in the transgenic group 13.8 months compared to 17.1 months for wild-type littermates. The majority of identified tumors in male mice were testicular tumors.
# NIH3T3 cells [2] = experiment: Cellular proliferation after transient transfection, colorometric assay of cell number; format: cell-based
# Description: The ability of NIH3T3 cells to overcome contact inhibition when transfected with different gene constructs has been used for many years to assess oncogenic potential of certain genes and to identify potential oncogenes. Cellular proliferation was assessed following transient transfections of NIH3T3 cells using a standardised colorometric assay of cell number. The effect of htt on cellular growth was examined and compared to the effect of a known oncogene, ras (FIG. 17). NIH3T3 cells transfected with htt constructs show a significant increase in cellular proliferation (5-6 fold increase in proliferation compared to control vector) that is similar to the effect of ras.
# hippocampal neurons = experiment: Kainic acid-induced seizure neurodegeneration in YAC transgenic mice; format: in vivo
# Description: Yeast artificial chromosome (YAC) transgenic mice were generated that over-express wild-type human htt at 2-3 times the levels of endogenous htt in wild-type mice (FVB/NJ) (Hodgson et al.(1996) Hum. Mol. Genet. 5, 1875-1885). Fifteen of these transgenic and 23 control FVB/NJ mice 4-8 months of age each received a single intraperitoneal injection of 25 mg/kg kainic acid (KA) or an equal volume of vehicle (PBS). Intraperitoneal injections of kainic acid injections cause prolonged seizures in mice, and each mouse was observed continuously for two hours following injection. The occurrence, severity, and duration of seizures was recorded.
# (§1) One week following KA injection, brains were removed from one group of the mice and immediately frozen in isopentene on dry ice. Serial 30 μm coronal cryostat sections were cut through the entire hippocampus. After every fifth section, two sections were removed for quantitative analysis and fixed in 3% paraformaldehyde for 30 minutes in preparation for histochemical staining. Degenerating neurons were identified in hippocampal sections by Fluoro-Jade™ histochemistry (Histo-Chem Inc.), silver staining (FD Neurotechnologies) and by TUNEL™ (Boehringer Mannheim). Fluoro-Jade™ is a fluorescent stain that labels degenerating neurons in fixed brain sections. The total number of degenerated hippocampal neurons labeled with Fluoro-Jade™ was recorded from the CA1, CA3, and total hippocampus regions of each section selected for quantitative analysis. Slide-mounted sections were viewed with a Zeiss (Axiovert) fluorescent microscope, digital photomicrographs were captured with a cooled CCD camera (Princeton), and degenerating hippocampal neurons manually counted in a blinded fashion. To assess the role of caspase activation in this process, the hippocampus and cerebellum were removed from a second group of animals 8 hours following KA-induced seizures. Caspase activity was measured in homogenized hippocampal and cerebellar samples using the fluorogenic substrate acetylated DEVD aminofluorocoumarin. DEVD-ase activity was standardized to protein content as determined by standard Lowry analysis.
# NIH/3T3 cells = experiment: Anoikis assay on poly-HEMA coated plates, annexin-V-FITC/PI; format: cell-based, murine; conditions: detached, 8 hours, p<0.05 vs parental cells
# Description: Using the murine transformed fibroblast cell line, NIH/3T3, the anoikis-resistance properties of wild type htt (15 glutamine repeat) and mutant htt (138 glutamine repeat) were investigated. NIH/3T3 cells require a matrix for attachment in order to experience optimum growing conditions. When detached from the supporting matrix, they experience a high rate of apoptosis. NIH/3T3 cells were transfected with a mammalian expression vector containing wild type htt (15 glutamine repeat) or mutant htt (138 glutamine repeat). Untransfected and transfected NIH/3T3 cells were grown on cell culture plates, whose plastic surface served as a substrate for matrix deposition and subsequent cellular attachment, or on poly-HEMA coated cell culture plates. The nonionic nature of poly-HEMA inhibits both matrix deposition and subsequent cell attachment. […] The cells were cultured in DMEM with 10% serum for 8 hours under attached conditions on plastic plates or under detached conditions on poly-HEMA-coated plastic plates. Cells were harvested, counted and viability was assessed via annexin-V-FITC and propidium iodide (PI) staining.
# [3] = system: DEVD-ase activity (caspase-2, -3, -7); experiment: DEVD-ase (caspase) activity after kainic acid-induced seizures; format: in vivo, mice; conditions: 8 hours after KA-induced seizures
# Description: as §1, with “To assess the role of caspase activation in this process, the hippocampus and cerebellum were removed from a second group of animals 8 hours following KA-induced seizures.” left out
# NIH3T3 cells [4] = experiment: Soft agar colony formation and transformation of retrovirally transfected cells; format: cell-based
# Description: Retroviral introduction of the S421 mutants into NIH3T3 cells was used to examine the oncogenic (proliferative) effects of phosphorylation on serine 421. […] To test the oncogenic potential of htt and to examine the effect of phosphorylation of htt at S421 on cell proliferation, a soft agar assay was conducted in NIH3T3 cells (FIG. 21). […] Mutant htt (HD138) transfection leads to no (0%) soft agar colonies.
# [5] = Body weight of transgenic mice over-expressing wild-type htt; format: in vivo; conditions: transgenic mice aged 5-8 months over-expressing wild-type htt
# Description: One of the roles of the pro-survival (e.g. anti-apoptotic) function of wild-type htt may be in control of tissue mass and cellular proliferation. Increased levels of wild-type htt expression can lead to increased body tissue mass and may predispose mice to the development of tumors. The effect of over-expression of human wild-type htt on the body weight of transgenic mice was compared to wild-type mice (FIG. 16). […] The average body weight was approximately 25% greater for the transgenic mice compared to wild-type. […] Over production of cells in the body can have a variety of unwanted outcomes including but not limited to obesity or cancer. This may be due to decreased naturally occurring apoptosis or increased cellular proliferation.
substance,measurement,setting,value
"wild-type htt: wild-type human huntingtin protein, polyglutamine tract of less than 35 glutamines; over-expressed in YAC line 212 mice or transfected (15 glutamine repeat)",mice identified with tumors that were transgenic,"[1]; 6 month period, 38/45",84.5%
same,average age of tumor development,"[1]; transgenic group, wild-type littermates 17.1 months",13.8 months
same,increase in proliferation compared to control vector,NIH3T3 cells [2],5-6 fold
same,average number of degenerating neurons per animal (Fluoro-Jade),"hippocampal neurons; CA1 region, 25 mg/kg KA i.p., one week, control 2360",3
same,average number of degenerating neurons per animal (Fluoro-Jade),"hippocampal neurons; CA3 region, 25 mg/kg KA i.p., one week, control 2003",79
same,fold less degenerating hippocampal neurons than control animals,hippocampal neurons; after KA-induced seizures,approximately 50 fold
same,TUNEL labeled apoptotic hippocampal neurons,"hippocampal neurons; after KA-induced seizures, transgenic mice",few apoptotic hippocampal neurons
same,argyrophyllic labelling of neuronal soma (silver staining),"hippocampal neurons; hippocampal sections after KA-induced seizures, transgenic vs wild-type mice",dramatically reduced
same,average number of degenerating hippocampal neurons per animal (Fluoro-Jade),"hippocampal neurons; total hippocampus, mice expressing 2-3 times endogenous htt levels, 25 mg/kg KA i.p., one week, control 4362",81
same,protection from cell death induced by anoikis,NIH/3T3 cells,Protection from cell death induced by anoikis
same,cerebellar caspase activation (DEVD-ase activity),"[3]; cerebellum, wild-type mice 8.68 +/−1.67, no significant difference",13.66 +/−2.32
same,hippocampal caspase activation (DEVD-ase activity),"[3]; hippocampus, wild-type mice 20.8 +/−1.77, P=0.02",14.5 +/−1.49
same,soft agar colonies,"NIH3T3 cells [4]; retrovirally transfected NIH3T3 cells, control cells about 5%",about 15%
same,increase in number of colonies over control cells,"NIH3T3 cells [4]; soft agar, NIH3T3 cells",3 fold
same,morphologic transformation,NIH3T3 cells [4]; stable retroviral transfection of NIH3T3 cells,"malignant, morphologic transformation"
same,average body weight greater than wild-type mice,[5],approximately 25%

# From patent US20040110676A1, “Methods for modulating cell survival” (priority 2000, published 2004)
